Experimental data from patent US20120225093A1, “Abrogating HIV-1 Infection via Drug-Induced Reactivation of Apoptosis” (UNIVERSITY OF MEDICINE AND DENTISTRY OF NEW JERSEY, priority 2010, published 2012).

How the values were obtained:
293T cells = assay: Apoptosis and viability of untransfected 293T cells (annexin V / 7AAD); format: cell-based, human; conditions: within 24 hr at concentrations used
Procedure: The cells were grown in DME medium (Sigma) and Jurkat cells in RPMI medium (Sigma), both supplemented with penicillin, streptomycin and 8% FBS. Quantitation of apoptosis and viability was performed with a BD FACSCalibur™ system using Annexin V-PE Apoptosis Detection Kit I (BD Biosciences, San Jose Calif.).

H9-HIV cells = assay: Intracellular cellular and retroviral proteins by flow cytometry in H9-HIV cells; format: cell-based
Procedure: Intracellular antigens were determined, as geometric means of fluorescence, by flow cytometric analysis using a BD FACSCalibur™ and its BD FACStation System™ (Becton Dickinson; San Jose, Calif.). Intracellular antigens were stained according to the instrument producer's instructions.
CD4+ T cells isolated from infected individuals have increased Bcl-2 levels compared to uninfected lymphocytes and some reports implicate HIV-1 Tat in preventing apoptosis in persistently infected cells by inducing the transcription of Bcl-2. Since CPX blocks HIV-1 gene expression, Bcl-2 expression in H9 and H9-HIV cells was determined. […] Retroviral proteins can also control apoptosis. Therefore, assays were carried out to measure the response of individual retroviral proteins in H9-HIV (FIG. 10C) to the shut-down of the HIV-1 promoter by CPX. […] Vpr induces apoptosis via caspase-3 activation.

IFN-γ = IFN-γ secretion by PBMC cultures (cytometric bead array); format: cell-based, human; conditions: CPX added at inoculation or 12 hr later; Phase I
Procedure: Uninfected PBMCs were co-incubated with infected PBMC stock in 24-well microplates at 2 ml/well Medium B, at a 10:1 ratio of uninfected-to-infected cells, and a total cell number of 1×10^6. Cultures were maintained and assayed for 6 consecutive days. CPX or Agent P2 was added at the time of inoculation or 12 hr later. Leaving the cell layer undisturbed, half the medium in each well was replenished every day, with concurrent adjustment of compound concentration. On each day during the 6-day experiments, a set of wells was harvested: the cells were processed for determination of viability and apoptosis, and the cell-free supernatants were stored at −80° C. for p24 and viral RNA measurements. Experiments were performed at least in duplicate and repeated at least twice.
(§1) p24 core antigen in the supernatant was quantified by ELISA (Retrotek HIV-1 p24™; ZeptoMetrix Corp.; Buffalo, N.Y.). HIV-1 RNA copy number in the supernatant was determined with a PCR-based and FDA-approved assay (Amplicor HIV-1 Monitor™; Roche Diagnostics Corp.; Indianapolis, Ind.). IFN-γ and IL-10 in the supernatant were determined by cytometric bead array (Human Th1/Th2 Cytokine Kit II™; BD Biosciences Pharmingen, San Jose, Calif.).
To further assess the cellular effects of CPX, the secretion of interferon (IFN)-γ and interleukin (IL)-10 was measured. […]

HIV-1 [1] = assay: Persistent PBMC infection model, long-term culture with drug withdrawal; format: cell-based; conditions: for rebound of HIV-1 infection after drug withdrawal: off-drug inspection period extending to 12 weeks
Procedure: Uninfected (5×10^6 cells) and infected PBMCs (0.5×10^6 cells) were co-incubated in a 25 ml culture flask at a final concentration of 0.22×10^6 cells/ml. Cultures were allowed to establish productive infection, defined by medium p24 at or above 250 pg/ml, and CPX was added. Cultures were replenished with Medium B and freshly isolated uninfected PBMCs on alternate days. For replacement of Medium B, half of the supernatant was gently exchanged without disturbing the cells, and the drug concentration was adjusted appropriately. For replacement with freshly isolated, stimulated and uninfected PBMCs, half of the cells and supernatant were removed and replaced with 2.5×10^6 cells in the proper volume of Medium B, with adjustment of the drug concentration. Cell-free supernatants were saved for p24 and viral RNA measurements.
as §1
Next, assays were carried out to examine whether CPX can control established HIV-1 infection in primary cells. Long-term PBMC cultures were employed as a model for on-going, self-sustaining HIV-1 production. As before, infection was initiated by exposure to patient isolate-infected cells. To emulate the bulk flow of susceptible cells from a generative into an infective compartment that occurs in vivo, a replenishment protocol was followed. Freshly isolated uninfected primary cells were infused into the infected cultures at regular intervals during multi-month monitoring of viral parameters. HIV-1 RNA reached the range of 10^6 copies/ml within a week of patient isolate inoculation, and this robust infection was sustained for >3 months (FIG. 14; open squares).

[2] = in vivo; cited from earlier work
HIV-1 [3] = assay: Small trial of virological response to DEF in HIV-infected volunteers; format: in vivo, human
[4] = CPX 30 μM from day 7 for one month, isolate #990,010

Cc1cc(C2CCCCC2)n(O)c(=O)c1 [CPX, 6-cyclohexyl-1-hydroxy-4-methylpyridin-2[1H]-one]
293T cell death (293T cells): marginal 293T cell death
active caspase-3 (H9-HIV cells; 30 μM CPX, 24 and 48 hr): the increase in Vpr paralleled that of active caspase-3
intracellular Rev (H9-HIV cells; 30 μM CPX, 24 and 48 hr): only marginally affected
intracellular Tat (H9-HIV cells; 30 μM CPX, 24 and 48 hr): similarly reduced
increase of Vpr level (H9-HIV cells; 30 μM CPX, within 24 hr): ~15%
reduction of intracellular p24 (H9-HIV cells; 30 μM CPX, within 24 hr): 30%
increase of Vpr level (H9-HIV cells; 30 μM CPX, within 48 hr): ~70%
reduction of intracellular p24 (H9-HIV cells; 30 μM CPX, within 48 hr): 70%
dose-dependent change in Bcl-2 content (H9-HIV cells; 24 hr, H9 and H9-HIV): neither of these measures achieved statistical significance
cells positive for Bcl-2 (H9-HIV cells; CPX 24 hr, irrespective of infection (H9 and H9-HIV)): ~35%
HIV-induced rise of IFN-γ (IFN-γ): abolished the HIV-induced cytokine boost
day after which viral RNA was not detected (HIV-1 [1]; CPX 30 μM from day 7): > 38 days
day after which viral protein was not detected (HIV-1 [1]; CPX 30 μM from day 7): > 21 days
decline in HIV-1 RNA levels (HIV-1 [1]; CPX 30 μM from day 7): four orders of magnitude
level of p24 (HIV-1 [1]; [4]): to the limit of detectability
level of viral RNA (HIV-1 [1]; [4]): to the limit of detectability
rebound of HIV-1 infection after drug withdrawal (HIV-1 [1]): productive infection does not return after drug removal
tolerability [2]: well tolerated

Cc1c(O)c(=O)ccn1C [DEF, 3-hydroxy-1,2-dimethylpyridin-4(1H)-one]
293T cell death (293T cells): marginal 293T cell death
response of retroviral proteins Rev, p24, Tat, Vpr (H9-HIV cells; DEF): sparing Rev, decreasing p24 and Tat, and increasing Vpr
rebound of HIV-1 infection after drug withdrawal (HIV-1 [1]): productive infection does not return after drug removal
virological response after drug withdrawal (HIV-1 [3]): persistent off-medicine antiretroviral activity even eight weeks after drug withdrawal
